Where no end group is shown, it is not given here.

The target in one assay is T1, human FPRL2 (Homo sapiens, UniProt P25089).
T1 sequence (P25089 with tags, fused parts or gaps): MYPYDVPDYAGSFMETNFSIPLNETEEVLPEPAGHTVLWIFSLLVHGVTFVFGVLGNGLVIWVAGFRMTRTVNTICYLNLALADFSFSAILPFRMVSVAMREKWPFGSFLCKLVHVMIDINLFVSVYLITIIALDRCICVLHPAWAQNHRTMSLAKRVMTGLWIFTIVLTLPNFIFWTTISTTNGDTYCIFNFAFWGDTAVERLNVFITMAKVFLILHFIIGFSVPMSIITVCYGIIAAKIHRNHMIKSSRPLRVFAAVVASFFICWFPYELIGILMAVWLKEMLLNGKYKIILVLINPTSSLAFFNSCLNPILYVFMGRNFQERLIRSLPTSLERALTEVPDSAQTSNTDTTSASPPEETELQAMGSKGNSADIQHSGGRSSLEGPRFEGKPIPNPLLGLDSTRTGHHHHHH
In words: Melanophore assay (pigment aggregation, Gi coupling). Particulars: FPRL2 double tagged (HA/V5), transient; FIG. 4; read-out: EC50 of promoted pigment aggregation in melanophore (Gi coupling). The arrangement: expressed in transfected cells. Type of assay: cell-based. The text has this:
Melanophores are skin cells found in lower vertebrates. They contain pigmented organelles termed melanosomes. Melanophores are able to redistribute these melanosomes along a microtubule network upon G-protein coupled receptor (GPCR) activation. The result of this pigment movement is an apparent lightening or darkening of the cells. In melanophores, the decreased levels of intracellular cAMP that result from activation of a Gi-coupled receptor cause melanosomes to migrate to the center of the cell, resulting in a dramatic lightening in color. If cAMP levels are then raised, following activation of a Gs-coupled receptor, the melanosomes are re-dispersed and the cells appear dark again. The increased levels of diacylglycerol that result from activation of Gq-coupled receptors can also induce this re-dispersion. In addition, the technology is also suited to the study of certain receptor tyrosine kinases. […] The response can be easily detected using a conventional absorbance microplate reader or a modest video imaging system. […]
Melanophores can be utilized to identify compounds, including natural ligands, against GPCRs. […] The test cells are then contacted with chemical compounds, and it is determined whether the pigment disposition in the cells changed from the initial state of pigment disposition. […]

For assay [1], the target named is T2, FPRL1 (Homo sapiens, UniProt P25090).
T2 sequence (P25090 1-351): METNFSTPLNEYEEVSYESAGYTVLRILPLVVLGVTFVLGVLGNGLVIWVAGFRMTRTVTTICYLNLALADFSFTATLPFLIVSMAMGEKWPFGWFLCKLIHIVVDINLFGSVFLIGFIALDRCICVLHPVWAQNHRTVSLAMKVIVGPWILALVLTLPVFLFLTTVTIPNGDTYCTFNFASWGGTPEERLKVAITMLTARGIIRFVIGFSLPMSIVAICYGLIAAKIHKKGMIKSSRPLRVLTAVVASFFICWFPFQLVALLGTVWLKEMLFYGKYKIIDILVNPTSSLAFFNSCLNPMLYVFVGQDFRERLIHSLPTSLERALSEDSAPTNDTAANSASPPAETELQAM
Particulars: Ying et al. 2002; cited from earlier work.

For assay [2] the following is noted: mice; Mamiya & Ukai 2001; cited from earlier work.
For assay [3], the target named is T2, FPRL1. In words: [35S]GTPγS binding assay, membranes of transiently transfected CHO cells. More on the design: Full-Length Cloning of Human GPCRs; expressed in transfected cells; host or cells: CHO-K1 cells, transient, pCMV; plasma membranes. The assay is classed as biochemical. Particulars: FIG. 3 panel B, read-out: EC50 at FPRL1, promoted [35S]GTPγS binding.

The EC50 is the concentration that produces a half-maximal response. `CC[C@H](C)[C@H](NC(=O)[C@H](CCC(=O)O)NC(=O)[C@H](CO)NC(=O)[C@@H](NC(=O)[C@H](CC(C)C)NC(=O)[C@H](CC(C)C)NC(=O)[C@H](CC(C)C)NC(=O)[C@H](CC(C)C)NC(=O)[C@H](CS)NC(=O)[C@H](CO)NC(=O)[C@H](Cc1ccccc1)NC(=O)CNC(=O)[C@H](CCCNC(=N)N)NC(=O)[C@@H]1CCCN1C(=O)[C@H](C)NC(=O)[C@@H](N)CCSC)[C@@H](C)O)C(=O)N[C@@H](CC(=O)O)C(=O)N[C@@H](CC(C)C)C(=O)N1CCC[C@H]1C(=O)N[C@H](C(=O)N[C@@H](CCCCN)C(=O)N[C@@H](CCCNC(=N)N)C(=O)N[C@@H](CCCNC(=N)N)C(=O)N[C@@H](C)C(=O)O)C(C)C` [Humanin]: the EC50 at human FPRL2 was about 239 nM. For the same molecule, the “Use of FPRL1 as receptor” value on FPRL1 [1] is reported as “uses FPRL1 as a functional receptor”. Besides, in assay [2], the “Learning and memory impairment” value was “improve learning and memory impairment in mice”.

As for “MAPRGFSCLLLLTGEIDLPVKRRA [[Gly14]-Humanin]”, at FPRL1 [3], the EC50 was about 1500 nM.

The record behind these values is US7776558B2, “Human G protein-coupled receptor and modulators thereof for the treatment of cell death-related disorders” (Arena Pharmaceuticals, Inc., priority 2003, dated 2010).
